Columns and labels:
Type in all cases: in vivo, Wistar rats
[1] = system: high-fat diet induced-obese rats; test: Therapeutic study: high-fat diet induced-obese rats treated for 12 weeks; details: for Average Food intake / Average body weight / FBG (fasting blood glucose level) / Cholesterol / HDL / LDL / Triglycerides / VLDL: obese rats, 12 weeks of treatment; for Average food intake of rats: TO, TS, TC1 and TC2 treated groups, 12 weeks, HFD; for Cholesterol / HDL / LDL / Triglycerides / VLDL: serum
Procedure: (§1) Thirty male Wistar rats (210-220 g) were obtained from the animal house facility of Dr. Panjwani Center for Molecular Medicine and Drug Research (ICCBS). All animals were kept under standard conditions of temperature and humidity with a 12 h light/dark cycle. This study was approved by the Ethical Committee of International Center for Chemical and Biological Sciences (Protocol #: 2015-0011). After one week of acclimation period, rats were randomly divided into two groups. The control group was fed with normal diet (D12450B, Research Diets, USA), whereas the other groups were fed with high-fat diet (D12451, Research Diets, USA) for a period of 16-week. After 10 weeks, biochemical parameters were evaluated regularly to establish whether the model has developed the symptoms of weight gain and metabolic syndrome.
(§2) Whereas for therapeutic studies the animal groups were further sub-divided into following groups which are as follow: Group 1 (TA), Control; animals in this group received LFD, and distilled water. Group 2 (TC), Pathological control; animals in this group received HFD, and distilled water. Groups 3 (TO), High fat diet induced obese animals in this group received standard drug Orlistat (100 mg/kg/day). Group 4 (TS): High fat diet induced obese animals in this group received standard drug Sibutramine (5 mg/kg/day). Group 5 (TC1): High fat diet induced obese animals in this group received B. officinalis extract (150 mg/kg/day). Group 6 (TC2): High fat diet induced obese animals in this group received B. officinalis extract (300 mg/kg/day).
Body weights were recorded weekly throughout the experiment. The food intake was calculated by using following formula, as described by Ghezzi et al, 2012: […]
(§3) For biochemical analysis after 16 weeks of experimental diet, the blood samples were taken from the tail vein after an overnight fast, whereas after 12 weeks of treatment period, rats were subjected to anesthesia, and blood was drawn by cardiac puncture. Liver and pancreas samples were prepared and stained with hematoxylin and eosin; the liver was excised and fixed in buffered formalin. The sectioned liver tissue segments were stained with hematoxylin-eosin (H-E), and observed under light microscope.
(§4) Blood glucose, serum insulin, total cholesterol, triglycerides, HDL, LDL, very low density lipoproteins […], urea, creatinine, aspartate aminotransferase […], alkaline phosphatase (ALP), serum glutamic pyruvic transaminase (SGPT), and direct and total bilirubin were estimated. Fasting blood glucose levels were measured using glucometer (AccuChek Performa, Australia). Fasting insulin levels were quantified using ultra sensitive rat insulin ELISA kit (Crystal Chem, Downers Grove, USA). Insulin sensitivity was evaluated using Homeostatic Model Assessment (HOMA). Serum total cholesterol, triglycerides, HDL, LDL, VLDL, urea, creatinine, AST, ALP, SGPT, and direct and total bilirubin were analyzed using automatic analyzer (Hitachi, Roche Diagnostics 902, Tokyo, Japan).
In therapeutic study, we investigated the capacity of B. officinalis extracts to reduce the weight of high fat diet induced obese rats, and to improve the key biochemical parameters in metabolic disorders.
Obese rats were treated with Borago officinalis extracts, at two different doses i.e. 150 mg/kg, and 300 mg/kg of body weight for 12 weeks. During these 12 weeks they were also fed HFD.

[2] = system: high fat diet rats; test: Preventive study: high fat diet rats given extract or standard drug for 8 weeks; details: for Average Food intake / Average body weight / Cholestrol / HDL / LDL / Tri-glyceride / VLDL: 8 weeks preventive study; for FBG (fasting blood glucose level): preventive study; for Cholestrol / HDL / LDL / Tri-glyceride / VLDL: serum
Procedure: as §1
After a period of 16 weeks, the group of rats on high fat diet (HF) have developed symptoms of metabolic disorders, along with insulin resistance. The HF fed rats were then sub-divided into […] groups of three rats each, i.e. Group 1 (PA), Control; animals in this group received LFD, and distilled water. Group 2, Pathological control (PC); animals in this group received HFD, and distilled water. Group 3 (PO); animals in this group received HFD, and standard drug Orlistat (100 mg/kg/day). Group 4 (PS); animals in this group received HFD, and standard drug Sibutramine (5 mg/kg/day). Group 5 (PC1); animals in this group received HFD, and B. officinalis extract (150 mg/kg/day). Group 6 (PC2); animals in this group received HFD, and B. officinalis extract (300 mg/kg/day).
Body weights were recorded weekly throughout the experiment. The food intake was calculated by using following formula, as described by Ghezzi et al, 2012:
[…] Liver and pancreas samples were prepared and stained with hematoxylin and eosin; the liver was excised and fixed in buffered formalin. The sectioned liver tissue segments were stained with hematoxylin-eosin (H-E), and observed under light microscope.
as §4

[3] = system: high-fat diet induced-obese rats; test: Evaluation of renal and liver toxicity after 12 weeks of treatment (therapeutic study); details: 5 mg/kg (TS)
Procedure: as §2, §3, §4
Evaluation of Renal and Liver Toxicity of Borago officinalis Extract

## CCCCCCCCCCC[C@@H](C[C@@H]1OC(=O)[C@H]1CCCCCC)OC(=O)[C@H](CC(C)C)NC=O [Orlistat]
[1]; 100 mg/kg (TO)
  Average Food intake: 3.18 g/100 g
  Average body weight: 356 ± 4.63 g
  FBG (fasting blood glucose level): 84 ± 0.17 mg/dL
  Cholesterol: 68 ± 3.66 mg/dL
  HDL: 52 ± 3.04 mg/dL
  LDL: 15 ± 0.41 mg/dL
  Triglycerides: 52 ± 0.16 mg/dL
  VLDL: 9 ± 0.87 mg/dL
[1]
  Average food intake of rats: decrease
[2]; 100 mg/kg (PO)
  Average Food intake: 4.23 g/100 g
  Average body weight: 256 ± 0.10 g
  FBG (fasting blood glucose level): 79 ± 1.04 mg/dL
  Cholestrol: 68 ± 3.66 mg/dL
  HDL: 52 ± 3.04 mg/dL
  LDL: 15 ± 0.41 mg/dL
  Tri-glyceride: 52 ± 0.16 mg/dL
  VLDL: 9 ± 0.87 mg/dL

## CC(C)CC(N(C)C)C1(c2ccc(Cl)cc2)CCC1 (stereo not shown) [Sibutramine]
[1]; 5 mg/kg (TS)
  Average Food intake: 4.20 g/100 g
  Average body weight: 361 ± 6.43 g
  FBG (fasting blood glucose level): 80 ± 0.12 mg/dL
  Cholesterol: 65 ± 0.13 mg/dL
  HDL: 59 ± 0.16 mg/dL
  LDL: 14 ± 0.68 mg/dL
  Triglycerides: 51 ± 0.19 mg/dL
  VLDL: 9 ± 0.8 mg/dL
[1]
  Average food intake of rats: decrease
[2]; 5 mg/kg (PS)
  Average Food intake: 5.34 g/100 g
  Average body weight: 251 ± 0.11 g
  FBG (fasting blood glucose level): 76 ± 2.12 mg/dL
  Cholestrol: 65 ± 0.13 mg/dL
  HDL: 59 ± 0.16 mg/dL
  LDL: 14 ± 0.68 mg/dL
  Tri-glyceride: 51 ± 0.19 mg/dL
  VLDL: 9 ± 0.8 mg/dL
[3]
  ALP: 116 ± 0.14 U/L
  ALT: 85 ± 0.009 U/L
  Creatinine: 0.49 ± 0.02 mg/dL
  SGPT: 38 ± 3.34 U/L
  Total Bilirubin: 0.15 ± 0.01 mg/dL
  Urea: 31 ± 2.42 mg/dL

Reference: US10426806B1, “Anti-obesity effect of Borago officinalis linn. extracts to prevent and treat metabolic disorders” (priority 2018, dated 2019)
